From PubChem BioAssay AID1963845 (Molecular Pharmacology Branch, DTP, NCI, 2024) come the findings set out here.
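Also: luminescence signal used as surrogate measure of viable cells; spheroids exposed to compounds for seven days before readout; 100% = DMSO vehicle control viability as luminescence relative to vehicle.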

The first assay relates to 429239-143-T-J1-PDC complex spheroid viability. Description: Anticancer human tumor 429239-143-T-J1-PDC patient-derived small cell lung carcinoma cell line growth inhibition [POLQ]. The note with it: second compound 0.1 µM; first compound 1 µM; active compounds read low. In outline: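 PDC + HUVEC + MSC complex spheroids; POLQ inhibitors ± partner drugs; top conc. at/near clinical Cmax, else 10 microM (SN-38 1 microM), half-log dilutions; 37 degrees C, 5% CO2.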
As for `CCc1cc2c(N3CCc4c(cc(Cn5ccnc5)cc4-c4cn(C)nc4C(F)(F)F)C3=O)ccnc2c(OC)n1` + Cc1cccc(N(C)C(=O)C2C(O)CCN2c2nc(C)cc(C(F)(F)F)c2C#N)c1, the viability, T/C (as a rule, the ratio of treated to control) is 89.1%.

`COc1ccc([C@@H](O)c2cc(-c3ncnc4cc(N5CCOCC5)ccc34)c(F)cc2Cl)nn1` + Cc1cccc(N(C)C(=O)C2C(O)CCN2c2nc(C)cc(C(F)(F)F)c2C#N)c1: the viability, T/C was 80.7%.

The assay is the same for the next values; noted with them: second compound 0.1 µM; first compound 3.16 µM; active compounds read low.
As for `C=CC(=O)N1CCN(c2nc(=O)n(-c3c(C)ccnc3C(C)C)c3nc(-c4c(O)cccc4F)c(F)cc23)C(C)C1` (configuration not stated) + Cc1cccc(N(C)C(=O)C2C(O)CCN2c2nc(C)cc(C(F)(F)F)c2C#N)c1, the viability, T/C is 92.9%.

On to `CC(C)n1c(=O)n(C)c2cnc3cc(F)c(-c4ccc(OCCCN5CCCCC5)nc4)cc3c21` + Cc1cccc(N(C)C(=O)C2C(O)CCN2c2nc(C)cc(C(F)(F)F)c2C#N)c1, for which the viability, T/C is 77.7%.

For the compound `CCc1cc2c(N3CCc4c(cc(Cn5ccnc5)cc4-c4cn(C)nc4C(F)(F)F)C3=O)cc(C)nc2c(OC)n1` + Cc1cccc(N(C)C(=O)C2C(O)CCN2c2nc(C)cc(C(F)(F)F)c2C#N)c1, the viability, T/C is 74.5%.

As to `CCc1cc2c(N3CCc4c(cc(Cn5ccnc5)cc4-c4cn(C)nc4C(F)(F)F)C3=O)ccnc2c(OC)n1` + Cc1cccc(N(C)C(=O)C2C(O)CCN2c2nc(C)cc(C(F)(F)F)c2C#N)c1, the viability, T/C is 85.7%.

For the compound `COc1ccc([C@@H](O)c2cc(-c3ncnc4cc(N5CCOCC5)ccc34)c(F)cc2Cl)nn1` + Cc1cccc(N(C)C(=O)C2C(O)CCN2c2nc(C)cc(C(F)(F)F)c2C#N)c1, the viability, T/C was 47.3%.

Still in this assay, the particulars now being: second compound 0.1 µM; first compound 10 µM; active compounds read low.
With `C=CC(=O)N1CCN(c2nc(=O)n(-c3c(C)ccnc3C(C)C)c3nc(-c4c(O)cccc4F)c(F)cc23)C(C)C1` (configuration not stated) + Cc1cccc(N(C)C(=O)C2C(O)CCN2c2nc(C)cc(C(F)(F)F)c2C#N)c1, the viability, T/C was 109%.

With `CC(C)n1c(=O)n(C)c2cnc3cc(F)c(-c4ccc(OCCCN5CCCCC5)nc4)cc3c21` + Cc1cccc(N(C)C(=O)C2C(O)CCN2c2nc(C)cc(C(F)(F)F)c2C#N)c1, the viability, T/C was 75.3%.

With `CCc1cc2c(N3CCc4c(cc(Cn5ccnc5)cc4-c4cn(C)nc4C(F)(F)F)C3=O)cc(C)nc2c(OC)n1` + Cc1cccc(N(C)C(=O)C2C(O)CCN2c2nc(C)cc(C(F)(F)F)c2C#N)c1, the viability, T/C was 49.8%.

Turning to `CCc1cc2c(N3CCc4c(cc(Cn5ccnc5)cc4-c4cn(C)nc4C(F)(F)F)C3=O)ccnc2c(OC)n1` + Cc1cccc(N(C)C(=O)C2C(O)CCN2c2nc(C)cc(C(F)(F)F)c2C#N)c1, the viability, T/C is 57.6%.

Take `COc1ccc([C@@H](O)c2cc(-c3ncnc4cc(N5CCOCC5)ccc34)c(F)cc2Cl)nn1` + Cc1cccc(N(C)C(=O)C2C(O)CCN2c2nc(C)cc(C(F)(F)F)c2C#N)c1: the viability, T/C is 9.36%.

Still in this assay, the particulars now being: second compound 0.316 µM; first compound 0.0316 µM; active compounds read low.
On to `C=CC(=O)N1CCN(c2nc(=O)n(-c3c(C)ccnc3C(C)C)c3nc(-c4c(O)cccc4F)c(F)cc23)C(C)C1` (configuration not stated) + Cc1cccc(N(C)C(=O)C2C(O)CCN2c2nc(C)cc(C(F)(F)F)c2C#N)c1, for which the viability, T/C is 105%.

For the compound `CC(C)n1c(=O)n(C)c2cnc3cc(F)c(-c4ccc(OCCCN5CCCCC5)nc4)cc3c21` + Cc1cccc(N(C)C(=O)C2C(O)CCN2c2nc(C)cc(C(F)(F)F)c2C#N)c1, the viability, T/C was 85%.

For `CCc1cc2c(N3CCc4c(cc(Cn5ccnc5)cc4-c4cn(C)nc4C(F)(F)F)C3=O)cc(C)nc2c(OC)n1` + Cc1cccc(N(C)C(=O)C2C(O)CCN2c2nc(C)cc(C(F)(F)F)c2C#N)c1, the viability, T/C is 104%.

As to `CCc1cc2c(N3CCc4c(cc(Cn5ccnc5)cc4-c4cn(C)nc4C(F)(F)F)C3=O)ccnc2c(OC)n1` + Cc1cccc(N(C)C(=O)C2C(O)CCN2c2nc(C)cc(C(F)(F)F)c2C#N)c1, the viability, T/C is 116%.

`COc1ccc([C@@H](O)c2cc(-c3ncnc4cc(N5CCOCC5)ccc34)c(F)cc2Cl)nn1` + Cc1cccc(N(C)C(=O)C2C(O)CCN2c2nc(C)cc(C(F)(F)F)c2C#N)c1: the viability, T/C was 105%.

Still in this assay, the particulars now being: second compound 0.316 µM; first compound 0.1 µM; active compounds read low.
Turning to `C=CC(=O)N1CCN(c2nc(=O)n(-c3c(C)ccnc3C(C)C)c3nc(-c4c(O)cccc4F)c(F)cc23)C(C)C1` (configuration not stated) + Cc1cccc(N(C)C(=O)C2C(O)CCN2c2nc(C)cc(C(F)(F)F)c2C#N)c1, the viability, T/C is 94.3%.

As to `CC(C)n1c(=O)n(C)c2cnc3cc(F)c(-c4ccc(OCCCN5CCCCC5)nc4)cc3c21` + Cc1cccc(N(C)C(=O)C2C(O)CCN2c2nc(C)cc(C(F)(F)F)c2C#N)c1, the viability, T/C is 93.9%.

Regarding `CCc1cc2c(N3CCc4c(cc(Cn5ccnc5)cc4-c4cn(C)nc4C(F)(F)F)C3=O)cc(C)nc2c(OC)n1` + Cc1cccc(N(C)C(=O)C2C(O)CCN2c2nc(C)cc(C(F)(F)F)c2C#N)c1, the viability, T/C was 99.6%.

With `CCc1cc2c(N3CCc4c(cc(Cn5ccnc5)cc4-c4cn(C)nc4C(F)(F)F)C3=O)ccnc2c(OC)n1` + Cc1cccc(N(C)C(=O)C2C(O)CCN2c2nc(C)cc(C(F)(F)F)c2C#N)c1, the viability, T/C is 97.8%.

Take `COc1ccc([C@@H](O)c2cc(-c3ncnc4cc(N5CCOCC5)ccc34)c(F)cc2Cl)nn1` + Cc1cccc(N(C)C(=O)C2C(O)CCN2c2nc(C)cc(C(F)(F)F)c2C#N)c1: the viability, T/C was 94.5%.

Staying with this assay, now noted: second compound 0.316 µM; first compound 0.316 µM; active compounds read low.
As to `C=CC(=O)N1CCN(c2nc(=O)n(-c3c(C)ccnc3C(C)C)c3nc(-c4c(O)cccc4F)c(F)cc23)C(C)C1` (configuration not stated) + Cc1cccc(N(C)C(=O)C2C(O)CCN2c2nc(C)cc(C(F)(F)F)c2C#N)c1, the viability, T/C is 107%.

On to `CC(C)n1c(=O)n(C)c2cnc3cc(F)c(-c4ccc(OCCCN5CCCCC5)nc4)cc3c21` + Cc1cccc(N(C)C(=O)C2C(O)CCN2c2nc(C)cc(C(F)(F)F)c2C#N)c1, for which the viability, T/C was 72.3%.

In the case of `CCc1cc2c(N3CCc4c(cc(Cn5ccnc5)cc4-c4cn(C)nc4C(F)(F)F)C3=O)cc(C)nc2c(OC)n1` + Cc1cccc(N(C)C(=O)C2C(O)CCN2c2nc(C)cc(C(F)(F)F)c2C#N)c1, the viability, T/C was 92.3%.

As to `CCc1cc2c(N3CCc4c(cc(Cn5ccnc5)cc4-c4cn(C)nc4C(F)(F)F)C3=O)ccnc2c(OC)n1` + Cc1cccc(N(C)C(=O)C2C(O)CCN2c2nc(C)cc(C(F)(F)F)c2C#N)c1, the viability, T/C was 96.8%.

As to `COc1ccc([C@@H](O)c2cc(-c3ncnc4cc(N5CCOCC5)ccc34)c(F)cc2Cl)nn1` + Cc1cccc(N(C)C(=O)C2C(O)CCN2c2nc(C)cc(C(F)(F)F)c2C#N)c1, the viability, T/C was 102%.
